Each structure is given as a SMILES string.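 Growth conditions: 96-well plates. Treatment: test compound, 48 hours, 5 concentrations. Analysis: linear interpolation between bracketing concentrations; unreached endpoints set to highest concentration. TGI: concentration producing complete growth inhibition.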

Experiment in all cases: inhibition of tumour cell growth, NCI panel, 48 h
The test system of test [1] is SK-MEL-28 melanoma.
Test [2] deals with MDA-MB-231 breast.
Test [3] concerns SN12C renal.
For test [4], the system named is HCC-2998 colon.
For test [5], the system named is MDA-N.
The test system of test [6] is SW-620 colon.
Test [7] deals with 786-0 renal.
In test [8] the test system is M14 melanoma.
For test [9], the system named is MCF7 breast.
Test [10] deals with SF-539 CNS.
Test [11] has as its system K-562 leukemia.
Test [12] deals with OVCAR-5 ovarian.
For test [13], the system named is LOX IMVI melanoma.
For test [14], the system named is T-47D breast.
The test system of test [15] is DU-145 prostate.
For test [16], the system named is NCI/ADR-RES ovarian.
Test [17] concerns EKVX NSCLC.
In test [18] the test system is SNB-75 CNS.

In the case of `N#Cc1c(-c2ccc(Cl)cc2)c(C#N)c(=O)n(NS(=O)(=O)c2ccccc2)c1-c1ccccc1`, the TGI in test [1], in [2], in test [3], in test [4], in [5] and in test [6] was greater than 25 µM each time. In addition, the TGI in test [7], in test [8], in [9], in test [10], in test [11] and in test [12] was greater than 25 µM in each case. The compound further gave a TGI in test [13] greater than 25 µM.

As for `Nc1ncc(Cc2nc3ccccc3s2)s1`, the TGI in test [1], in [2], in test [3], in test [4], in test [6] and in test [14] was greater than 100 µM throughout. Besides, the TGI in test [7], in test [8], in test [15], in test [9], in test [10] and in test [11] was greater than 100 µM in each case. Also, the TGI in test [16], in [12], in test [17], in test [13] and in test [18] was greater than 100 µM throughout.

`O=C(NCc1ccccc1)c1cnc(Cl)cn1`: the TGI in [1] was greater than 100 µM; in test [2], greater than 100 µM; in [3] it was greater than 100 µM; in test [4], 43.3 µM; in [6], greater than 100 µM; in test [14], greater than 100 µM. Moreover, the TGI in test [7] is greater than 100 µM; in test [8], greater than 100 µM; in test [15], greater than 100 µM; in [9] it was greater than 100 µM; in test [10] it was greater than 100 µM; in test [16], 44.2 µM. Moreover, the TGI in [17], in [13] and in [18] was greater than 100 µM throughout.

With `COCN1C(=O)[C@@H]2CCCN2C(=O)c2cc([N+](=O)[O-])ccc21`, the TGI in [1], in test [2], in [3], in [6], in [14] and in [7] was greater than 100 µM each time. Also, the TGI in test [8], in test [15], in test [9], in [10], in [16] and in test [12] was greater than 100 µM in each case. Also, the TGI in [17], in test [13] and in [18] was greater than 100 µM in each case.

Take `Cc1n[nH]c(=O)n1N=C(c1ccccc1)c1ccccc1`: the TGI in test [1], in [2], in test [3], in test [5], in [6] and in [7] was greater than 100 µM each time. Also, the TGI in test [8], in [15], in test [9], in test [11], in [16] and in [12] was greater than 100 µM in each case. In addition, the TGI in test [17] and in test [13] was greater than 100 µM throughout.

Consider `CC(=O)c1cn(-c2ccc(Cl)cc2)c(=O)c2c(N)n[nH]c12`, for which the TGI in test [1], in [2], in test [4], in test [6], in test [14] and in [7] was greater than 100 µM each time. Also, the TGI in test [15], in [11], in [16], in [17], in [13] and in test [18] was greater than 100 µM in each case.

Regarding `Cc1ccc2[nH]c3c(C)c4ccncc4c(C)c3c2c1`, the TGI in test [1] came out at 3.47 µM; in test [3] it was 2.39 µM; in test [4], 2.87 µM; in test [6], 1.7 µM; in [8] it was 3.29 µM; in [9] it was 2.32 µM. Moreover, the TGI came out at 2.68 µM in test [10]; 2.52 µM in test [11]; 2.24 µM in [16]; 2.81 µM in test [12]; 2.5 µM in test [17]; 4.77 µM in test [13]. The compound also returned a TGI in test [18] of 3.17 µM.

Consider `CN1CCN(c2ccc3[nH]c(C4=C(O)c5nc(CO)n(C)c5C(=O)C4=O)nc3n2)CC1`, for which the TGI in test [1], in [2], in [3], in test [4], in test [6] and in test [14] was greater than 100 µM in each case. Also, the TGI in test [7], in test [8], in test [15], in [10], in [11] and in [16] was greater than 100 µM throughout. Moreover, the TGI in [12], in test [17], in test [13] and in test [18] was greater than 100 µM each time.

(Values after PubChem BioAssay (NCI).)
